{"source": "patent US11696924B2", "about": "“Combination therapy using PDK1 and PI3K inhibitors” (MEMORIAL SLOAN-KETTERING CANCER CENTER, priority 2015, dated 2023)", "type_in_all_cases": "cell-based", "key": {"HCC1954 cells": {"system": "HCC1954 cells", "assay": "cell viability, MTT assay", "details": "HCC1954 shPDK1, 6 days", "method": "(§1) Cell viability was measures using the MTT assay. Briefly, 5000 cells were seeded in 96 well plates, treated for 6 days, and assayed using 0,25% MTT (Sigma) and 50 mM sodium succinate (Sigma) solutions during 3 h. Formazan crystals were dissolved with DMSO and absorbance was measured at 570 nm of wavelength."}, "JIMT1 cells": {"system": "JIMT1 cells", "assay": "cell viability, MTT assay", "details": "JIMT1 shPDK1, 6 days", "method": "as §1"}, "pAKT (S473, T308)": {"system": "pAKT (S473, T308)", "assay": "Western blot of AKT phosphorylation", "excerpt": "For western blot analysis proteins were extracted in RIPA buffer supplemented with protease and phosphatase inhibitors (Roche). Protein lysates were separated using SDS-PAGE gels and transferred to a PVDF membrane. Then, membranes were probed using specific antibodies. PDK1, pAKT (S473), pAKT (T308), pS6K (T389), pS6 (S240/4), pS6 (235/6), p4EBP1 (S65), PARP, Actin, pRSK (S227), cleaved Caspase 3, pFOXO1/3 (T24/T32), SGK1, SGK2, SGK3, pNDRG1 (T346), NDRG1, Flag, HA, and phospho-RXRXX(S/T) (SEQ ID NO: 1) were from Cell Signaling Technology (CST)."}, "[1]": {"system": "cap-dependent translation", "assay": "m7GTP pull down, cap-dependent translation", "details": "HCC1954 shPDK1, BYL719 1 μM, 4 h", "method": "2 million cells were seeded in 10 cm plates and treated accordingly 12 hr after seeding. Lysates were prepared using m7GTP pull down buffer (50 mM Hepes, pH 7.4, 75 mM NaCl, 10 mM MgCl2, 1 mM DTT, 8 mM EGTA, 10 mM β-glycerophosphate, 0.5 mM Na3VO4, 0.5% Triton X-100) supplemented with protease and phosphatase inhibitors. Lysates were centrifuged at 13000 rpm for 10 min and supernatants were rotated for 2 h at 4° C. with 7-methyl-GTP-Sepharose or control Sepharose beads (Jena Bioscience). Beads were washed three times with m^7GTP pull down buffer, resuspended in Laemmli buffer, and associated proteins were detected by Western blot."}, "FOXO3": {"system": "FOXO3", "assay": "FOXO-dependent transcription (microarray, RT-PCR, immunofluorescence, luciferase reporter, ChIP-qPCR)", "details": "HCC1954 and JIMT1, 1 μM, 4 h, vs DMSO", "description": "B) Enrichment plot for the FOXO3 signature in HCC1954 cells. C) Heat map showing changes in previously described FOXO3 targets.\nG) Luciferase reporter assay in HCC1954 cells stably transduced with the FOXO consensus motif reporter construct treated as indicated for 12 h (RLU, Relative light units). H) ChIP-qPCR assay of FOXO3A binding at TNFSF10A and IRS2 promoters in HCC1954 cells treated as indicated in F. P values are calculated using Student's t-test. Error bars are ±SEM.\nRNA was isolated from cells using the QIAGEN RNeasy kit. For microarray analysis, biotinylated cRNA was prepared according to the standard Illumina protocol. After fragmentation, cRNA was hybridized with Illumina GX HT12 Human Array. Slides were washed and stained in the Illumina instrument following manufactured protocol. Slides were scanned using Illumina Bead Array Reader. Data were analyzed using GenomeStudio software. No normalization and background correction are performed first, then quantile normalization and background correction are done.\nFor mRNA expression analysis, cDNA was prepared using the Bio-Rad cDNA synthesis kit. cDNA was amplified by quantitative PCR using SYBR Select Master Mix (Applied Biosystems) in the ViiA 7 Real-Time PCR system. All reactions were carried out in triplicate.\nLysed cells were sonicated on ice to yield 200-800 bp DNA fragments. […]"}, "AKT": {"system": "AKT", "assay": "kinase activity of immunoprecipitated endogenous AKT", "details": "HCC1954, 4 hr, Crosstide substrate", "method": "In vitro kinase activity of endogenous SGK1 and AKT was assayed by measuring [γ-32P] ATP incorporation into Crosstide substrate peptide [[…]] […] SGK1 and AKT were immunoprecipitated from HCC1954 cell line 4 hr after treatment. Immunoprecipitates were washed once with lysis buffer containing 500 mM NaCl, once with lysis buffer, and twice with Buffer A (50 mM Tris pH 7.5, 0.1 mM EGTA). Reactions were carried out in 40 μL total volume containing 0.1 mM [γ-32P] ATP (400-1000 cpm/pmol), 10 mM magnesium acetate, and 30 μM Crosstide peptide. Reactions were terminated by adding 10 μL […] EDTA. 40 μL of the reaction mix was spotted on P81 paper, which was immediately immersed into 50 mM ortophosphoric acid and washed several times. Papers were rinsed in acetone and air dried. Radioactivity was quantified by Cerenkov counting. One unit of enzyme activity was defined as the amount of enzyme that catalyzes incorporation of 1 nmol of [γ-32P] ATP into the substrate over one minute."}}, "note": "“Also recorded” adds a separate entry of the source."}
{"smiles": "Cc1nc(NC(=O)N2CCC[C@H]2C(N)=O)sc1-c1ccnc(C(C)(C)C(F)(F)F)c1", "note": "[BYL719]", "values": [{"measurement": "cell viability in PDK1 knockdown cells", "setting": "HCC1954 cells", "result": "decrease cell viability"}, {"measurement": "cell viability in PDK1 knockdown cells", "setting": "JIMT1 cells", "result": "decrease cell viability"}, {"measurement": "AKT phosphorylation / activity", "setting": "pAKT (S473, T308); BYL719-resistant cells (HCC1954, JIMT1), 1 μM, 4 h", "result": "reduced AKT phosphorylation (S473 and T308); also recorded: effectively suppressed AKT activity"}, {"measurement": "pAKT (S473) levels fully decreased", "setting": "pAKT (S473, T308); CAL-148 and CAL-51 cells, 1 μM, 4 h", "result": "fully decreases pAKT levels"}, {"measurement": "AKT phosphorylation", "setting": "pAKT (S473, T308); HCT116 PDPK1+/+ and PDPK1−/− cells", "result": "decreases AKT phosphorylation"}, {"measurement": "cap-dependent translation in PDK1 knockdown cells", "setting": "[1]", "result": "decreased cap-dependent translation"}, {"measurement": "changes in gene expression / transcriptomic profile", "setting": "FOXO3", "result": "modest"}, {"measurement": "endogenous AKT kinase activity", "setting": "AKT", "result": "completely abrogated"}]}
